Where a name gives a salt, the structure may show the parent alone. Read-outs that look alike come from different tables or passages of the source.
Tested on: IRE1-XBP1s (XBP1-RLuc splicing reporter in HEK293 T-REx cells)
Assay: IRE1-XBP1s activation assay (XBP1-RLuc splicing reporter, HEK293 T-REx cells, luminescence relative to thapsigargin)
Format: cell-based
Conditions: 18 h, read-out: Activity (IRE1-XBP1s activation, luminescence as % signal relative to thapsigargin, % Tg)
Experimental: IRE1-XBP1s activation Assay: HEK293 T-REx cells stably expressing the XBP1-RLuc splicing reporter were treated with an IRE1-XBP1s activator provided herein (10 μM) in the presence or absence of the IRE1 active site inhibitor 4μ8C (32 μM) for 18 h. Luminescence was shown as the percentage signal relative to thapsigargin (Tg) (500 nM, 18 h).

[1] = compound 10 μM, HEK293 T-REx XBP1-RLuc reporter cells, relative to thapsigargin (Tg) 500 nM

SMILES | activation at 10 µM [1] [%] | activation at 10 µM [%]
Cc1ccc(OCCN(C)C(=O)Cn2cc(NC(=O)[C@H](CNc3ccc(F)nc3C)C(C)C)cn2)cc1 [Compound 172] | 30 to 50 | 
CN(CCOc1ccc(C(F)(F)F)cn1)C(=O)Cn1cc(NC(=O)CCOc2ccnc(N)c2)cn1 [Compound 95] | < 30 | 
Cc1ccc(OCCN(C)C(=O)Cn2cc(N(C)C(=O)CCOc3ccccc3F)cn2)cc1 [Compound 51] | < 30 | 
CNc1nccc(OCCC(=O)Nc2cnn(CC(=O)N(C)CCOc3ccc(C)cc3)c2)n1 [Compound 106] | > 50 | 
Cc1ccc(OCCN(C)C(=O)Cn2cc(NC(=O)CCN(C)c3ccccc3)cn2)cc1 [Compound 21] | < 30 | 
Cc1ccc(OCCN(C)C(=O)Cn2cc(NC(=O)CCCc3ccccc3)cn2)cc1 [Compound 92, N-(1-(2-(methyl(2-(p-tolyloxy)ethyl)amino)-2-oxoethyl)-1H-pyrazol-4-yl)-4-phenylbutanamide] | < 30 | 
COc1ccc(OCCN(C)C(=O)Cn2cc(NC(=O)CCOc3ccnc(F)c3)cn2)cc1 [Compound 96] | < 30 | 
Cc1ccc(OCCN(C)C(=O)Cn2cc(NC(=O)CCNC(=O)c3ncc(F)cn3)cn2)cc1 [Compound 248, 5-Fluoro-N-[3-[[1-[2-[methyl-[2-(4-methylphenoxy)ethyl]amino]-2-oxo-ethyl]pyrazol-4-yl]amino]-3-oxo-propyl]pyrimidine-2-carboxamide] | < 30 | 
Cc1ccc(OCCN(C)C(=O)Cn2cc(NC(=O)CCNc3ncc(-c4ncc(C)o4)cn3)cn2)cc1 [Compound 294, N-(1-(2-(methyl (2-(p-tolyloxy)ethyl)amino)-2-oxoethyl)-1H-pyrazol-4-yl)-3-((5-(5-methyloxazol-2-yl)pyrimidin-2-yl)amino)propanamide] | < 30 | 
Cc1ccc(OCCN(C)C(=O)Cn2cc(NC(=O)CCNc3ccnc(C(F)(F)F)c3)cn2)cc1 [Compound 128] | < 30 | 
Cc1ccc(OCCN(C)C(=O)Cn2cc(NC(=O)COc3c(F)cncc3C(C)C)cn2)cc1 [Compound 274, 2-(4-(2-((3-fluoro-5-isopropylpyridin-4-yl)oxy)acetamido)-1H-pyrazol-1-yl)-N-methyl-N-(2-(p-tolyloxy)ethyl)acetamide] | < 30 | 
Cc1ccc(OCCN(C)C(=O)Cn2cc(NC(=O)CCNc3cnc(Cl)cn3)cn2)cc1 [Compound 127] | > 50 | 
C#CC1CCCCC1OCCC(=O)Nc1cnn(CC(=O)N(C)CCOc2ccc(C)cc2)c1 (stereo not drawn) [Compound 2, 3-((2-ethynylcyclohexyl)oxy)-N-(1-(2-(methyl(2-(p-tolyloxy)ethyl)amino)-2-oxoethyl)-1H-pyrazol-4-yl)propanamide hydrochloride] |  | > 50
CCc1nccnc1NCCC(=O)Nc1cnn(CC(=O)N(C)CCOc2ccc(C)cc2)c1 [Compound 142] | 30 to 50 | 
Cc1ccc(OCCN(C)C(=O)Cn2cc(NC(=O)CCNc3c(F)cncc3Cl)cn2)cc1 [Compound 150] | 30 to 50 | 
Cc1ccc(OCCN(C)C(=O)Cn2cc(NC(=O)CCNc3c(Cl)cncc3Cl)cn2)cc1 [Compound 152] | > 50 | 
Cc1ccc(OCCN(C)C(=O)Cn2cc(NC(=O)CCOc3cccc(NC(=O)OC(C)(C)C)n3)cn2)cc1 [Compound 102] | > 50 | 
Cc1ccc(OCCN(C)C(=O)Cn2cc(NC(=O)C3(CNc4ccc(F)nc4C)CC3)cn2)cc1 [Compound 293, 1-(((6-fluoro-2-methylpyridin-3-yl)amino)methyl)-N-(1-(2-(methyl (2-(p-tolyloxy)ethyl)amino)-2-oxoethyl)-1H-pyrazol-4-yl)cyclopropane-1-carboxamide] | < 30 | 
Cc1ccc(OCCN(C)C(=O)Cn2cc(NC(=O)CCOc3ccc(F)cc3C(C)C)cn2)cc1 [Compound 66] | > 50 | 
Cc1ccc(OCCN(C)C(=O)Cn2cc(NC(=O)CCNc3c(F)cnc(C)c3C3CC3)cn2)cc1 [Compound 214] | > 50 | 
Cc1ccc(OCCN(C)C(=O)Cn2cc(NC(=O)CCOc3ccccc3C)cn2)cc1 [Compound 34] | > 50 | 
Cc1ccc(OCCN(C)C(=O)Cn2cc(NC(=O)CCOc3ccc(C)nc3C)cn2)cc1 [Compound 11] | 30 to 50 | 
Cc1ccc(OCCN(C)C(=O)Cn2cc(NC(=O)CCNc3ccnc4nccn34)cn2)cc1 [Compound 227] | < 30 | 
CN(CCOc1cc(C(F)F)on1)C(=O)Cn1cc(NC(=O)CCNc2nccc(F)n2)cn1 [Compound 271] | < 30 | 
Cc1ccc(OCCN(C)C(=O)Cn2cc(NC(=O)CCNc3cc(C)ncc3C)cn2)cc1 [Compound 173] | < 30 | 
Cc1ccc(OCCN(C)C(=O)Cn2cc(NC(=O)CCNc3cccc(N)n3)cn2)cc1 [Compound 154] | > 50 | 
Cc1ccc(OCCN(C)C(=O)Cn2cc(NC(=O)/C=C/Oc3cccnc3N)cn2)cc1 [Compound 237] | < 30 | 

SMILES | activation at 10 µM [1] [%] | activation at 10 µM [%]
Cc1cc(F)ccc1OCCC(=O)Nc1cnn(CC(=O)N(C)CCOc2ccc(C(=O)O)cc2)c1 [Compound 88] | < 30 | 
CN(CCOc1ccc(C(F)(F)F)cn1)C(=O)Cn1cc(NC(=O)CCOc2ccc(Cl)cc2F)cn1 [Compound 94] | 30 to 50 | 
Cc1ccc(OCCN(C)C(=O)Cn2cc(NC(=O)CCOc3ccc(C)cc3F)cn2)cc1 [Compound 39] | 30 to 50 | 
COc1ccc(OCCN(C)C(=O)Cn2cc(NC(=O)CCOc3ccc(C)cc3F)cn2)cc1 [Compound 77] | < 30 | 
Cc1ccc(OCCC(=O)Nc2cnn(CC(=O)N(C)CCOc3ccc(C(F)F)cc3)c2)c(F)c1 [Compound 86] | > 50 | 
Cc1ccc(OCCN(C)C(=O)Cn2cc(NC(=O)CCNc3ccnc(Cl)c3)cn2)cc1 [Compound 149] | > 50 | 
Cc1ccc(OCCN(C)C(=O)Cn2cc(NC(=O)COc3cccc4cccnc34)cn2)cc1 [Compound 287, N-methyl-2-(4-(2-(quinolin-8-yloxy)acetamido)-1H-pyrazol-1-yl)-N-(2-(p-tolyloxy)ethyl)acetamide] |  | < 30
CN(CCOc1ccccn1)C(=O)Cn1cc(NC(=O)CCOc2ccccc2F)cn1 [Compound 43, 3-(2-fluorophenoxy)-N-(1-(2-(methyl(2-(pyridin-2-yloxy)ethyl)amino)-2-oxoethyl)-1H-pyrazol-4-yl)propanamide] |  | < 30
Cc1ccc(OCCN(C)C(=O)Cn2cc(NC(=O)CCNc3ncc(C)cc3C)cn2)cc1 [Compound 195] | < 30 | 
Cc1ccc(OCCN(C)C(=O)Cn2cc(NC(=O)CCOc3cccnc3)cn2)cc1 [Compound 6, N-(1-(2-(methyl(2-(p-tolyloxy)ethyl)amino)-2-oxoethyl)-1H-pyrazol-4-yl)-3-(pyridin-3-yloxy)propanamide] | > 50 | 
Cc1ccc(OCCN(C)C(=O)Cn2cc(NC(=O)CC(C)(C)Nc3ccnc(F)n3)cn2)cc1 [Compound 217, 3-((2-fluoropyrimidin-4-yl)amino)-3-methyl-N-(1-(2-(methyl(2-(p-tolyloxy)ethyl)amino)-2-oxoethyl)-1H-pyrazol-4-yl)butanamide] | < 30 | 
Cc1ccc(OCCN(C)C(=O)Cn2cc(NC(=O)C(CNc3ccc(F)nc3C)C3CCCCC3)cn2)cc1 (stereo not drawn) [Compound 219] | 30 to 50 | 
Cc1ccc(OCCN(C)C(=O)Cn2cc(NC(=O)C(C)(C)C(=O)Nc3ncc(F)cn3)cn2)cc1 [Compound 258, N1-(5-fluoropyrimidin-2-yl)-2,2-dimethyl-N3-(1-(2-(methyl(2-(p-tolyloxy)ethyl)amino)-2-oxoethyl)-1H-pyrazol-4-yl)malonamide] |  | < 30
Cc1ccc(OCCN(C)C(=O)Cn2cc(NC(=O)CCOc3c(C(C)C)ccnc3C)cn2)cc1 [Compound 15] | > 50 | 
Cc1ccc(OCCN(C)C(=O)Cn2cc(NC(=O)CCNc3cnc(F)cc3C)cn2)cc1 [Compound 179] | > 50 | 
CC(C)c1cncc(F)c1NCCC(=O)Nc1cnn(CC(=O)N(C)CCOc2ccc(C(F)(F)F)cn2)c1 [Compound 269] | > 50 | 
COc1ccccc1OCCC(=O)Nc1cnn(CC(=O)N(C)CCOc2ccc(C)cc2)c1 [Compound 28] | > 50 | 
Cc1ccc(OCCN(C)C(=O)Cn2cc(NC(=O)CCOC3CCC(C)(C)CC3)cn2)cc1 [Compound 3, 3-((4,4-dimethylcyclohexyl)oxy)-N-(1-(2-(methyl(2-(p-tolyloxy)ethyl)amino)-2-oxoethyl)-1H-pyrazol-4-yl)propanamide] | > 50 | 
Cc1ccc(OCCN(C)C(=O)Cn2cc(NC(=O)CCNc3cc(C)ncc3F)cn2)cc1 [Compound 207] | < 30 | 
Cc1ccc(OCCN(C)C(=O)Cn2cc(NC(=O)COc3ccc4ccccc4n3)cn2)cc1 [Compound 288] | < 30 | 
Cc1ccc(OCCN(C)C(=O)Cn2cc(NC(=O)CCNc3ccc4c(c3)OC(F)(F)O4)cn2)cc1 [Compound 290] | < 30 | 
Cc1ccc2sc(OCCN(C)C(=O)Cn3cc(NC(=O)CCNc4ccc(F)nc4C)cn3)nc2c1 [Compound 246] | < 30 | 
Cc1ccc(OCCN(C)C(=O)Cn2cc(NC(=O)CCNc3ccnc(O)n3)cn2)cc1 [Compound 260, 3-((2-hydroxypyrimidin-4-yl)amino)-N-(1-(2-(methyl(2-(p-tolyloxy)ethyl)amino)-2-oxoethyl)-1H-pyrazol-4-yl)propanamide] | < 30 | 
Cc1ccc(OCCC(=O)Nc2cnn(CC(=O)N(C)CCOc3ccc(Cl)cc3)c2)c(F)c1 [Compound 71] | < 30 | 
Cc1ccc(OCCN(C)C(=O)Cn2cc(NC(=O)CCOc3ncncc3N)cn2)cc1 [Compound 109] | > 50 | 
Cc1ccc(OCCC(=O)Nc2cnn(CC(=O)N(C)CCOc3ccc(C4CC4)cc3)c2)c(F)c1 [Compound 73] | 30 to 50 | 
COc1cccc(NCCC(=O)Nc2cnn(CC(=O)N(C)CCOc3ccc(C)cc3)c2)n1 [Compound 188] | < 30 | 
